Measured values reported in the PolyMetriX glass transition set.
± gives the standard deviation of the reports.

Q: With `*CCOCCOCCOCCOC(=O)CCSCCC(=O)O*` (repeat unit) as the compound, how does the glass transition temperature read?
A: -38.00 °C

Q: Which glass transition temperature does the source give for `*/C=C/C(C)C(*)C(=O)OC12CC3CC(CC(C3)C1)C2` (repeat unit) here?
A: 115.00 °C

Q: For `*CC(*)(C)C(=O)OCCCCCCCCCCOc1ccc(OC(=O)c2ccc(OC)c(Br)c2)cc1` (repeat unit), which glass transition temperature is on record?
A: 29.00 °C

Q: With `*C/C=C/C[Si](*)(c1ccccc1)c1ccccc1` (repeat unit) as the compound, how does the glass transition temperature read?
A: 34.90 °C

Q: With `*C1C(=O)N(c2ccc(O[Si](c3ccccc3)(c3ccccc3)c3ccccc3)cc2)C(=O)C1*` (repeat unit) as the compound, how does the glass transition temperature read?
A: 183.00 °C

Q: With `*C(=O)c1ccc2c(c1)C(=O)N(c1cccc(C(=O)Nc3ccc(N4C(=O)c5ccc(*)cc5C4=O)cc3)c1)C2=O` (repeat unit) as the compound, how does the glass transition temperature read?
A: 308.00 °C

Q: With `*Oc1c(C)cc(*)cc1C(C)CCCCC` (repeat unit) as the compound, how does the glass transition temperature read?
A: 60.00 °C

Q: For `*c1ccc2c(c1)C(=O)N(c1cccc(C(=O)Nc3ccc(Oc4ccc(C(C)(C)c5ccc(Oc6ccc(NC(=O)c7cccc(N8C(=O)c9ccc(C(*)(C(F)(F)F)C(F)(F)F)cc9C8=O)c7)cc6)cc5)cc4)cc3)c1)C2=O` (repeat unit), which glass transition temperature is on record?
A: 259.00 °C

Q: For `*CCC(*)(C)C` (repeat unit), which glass transition temperature is on record?
A: -12.00 °C

Q: Which glass transition temperature does the source give for `*CC(*)(C)C#N` (repeat unit) [Poly(methacrylonitrile)] here?
A: 101.67 ± 19 °C

Q: Which glass transition temperature does the source give for `*C1C(=O)N(c2c(CC)cccc2CC)C(=O)C1*` (repeat unit) here?
A: 288.00 °C

Q: Which glass transition temperature does the source give for `*c1nc(-c2ccccc2)nc(N(CCCCCCN(*)c2ccccc2)c2ccccc2)n1` (repeat unit) here?
A: 74.00 °C

Q: For `*Oc1ccc(C2(c3ccc(OC4(F)C(*)(F)C(F)(F)C4(F)F)cc3)c3ccccc3-c3ccccc32)cc1` (repeat unit), which glass transition temperature is on record?
A: 228.00 °C

Q: For `*CCOC(=O)c1ccccc1C(=O)O*` (repeat unit) [Poly(ethylene phthalate)], which glass transition temperature is on record?
A: 60.17 ± 51 °C

Q: With `*c1cc(-n2c(=O)c3cc4c(=O)n(*)c(=O)c4cc3c2=O)c(O)cc1O` (repeat unit) as the compound, how does the glass transition temperature read?
A: 362.00 °C

Q: Which glass transition temperature does the source give for `*C(=O)c1ccc2c(c1)C(=O)N(c1c(C)cc(C(c3cc(C)c(N4C(=O)c5ccc(*)cc5C4=O)c(C)c3)c3cccc4ccccc34)cc1C)C2=O` (repeat unit) here?
A: 318.00 °C

Q: Which glass transition temperature does the source give for `*C(=O)Nc1cccc(C(=O)c2cccc(NC(=O)c3ccc4c(c3)C(=O)N(c3ccc(-c5sc(-c6ccc(N7C(=O)c8ccc(*)cc8C7=O)cc6)c(-c6ccccc6)c5-c5ccccc5)cc3)C4=O)c2)c1` (repeat unit) here?
A: 308.00 °C

Q: Which glass transition temperature does the source give for `*Cc1cccc(CNC(=O)/C=C(\C)C(=O)N*)c1` (repeat unit) here?
A: 135.00 °C

Q: Which glass transition temperature does the source give for `*C(=O)c1ccc(C(=O)N2CC(C)N(*)CC2C)cc1` (repeat unit) here?
A: 350.00 °C

Q: With `*COc1ccc(C(c2ccc(O*)cc2)(C(F)(F)F)C(F)(F)F)cc1` (repeat unit) as the compound, how does the glass transition temperature read?
A: 123.00 °C

Q: With `*c1ccc(Oc2cccc(Oc3ccc(N4C(=O)c5cccc(Oc6ccc(-c7ccc(Oc8cccc9c8C(=O)N(*)C9=O)cc7)cc6)c5C4=O)cc3)c2)cc1` (repeat unit) as the compound, how does the glass transition temperature read?
A: 224.00 °C

Q: With `*C(=O)c1ccc2c(c1)C(=O)N(c1ccc(-c3c(-c4ccc(-c5ccccc5)cc4)cc(-c4ccc(OCCCCCCCCCCOc5ccc(-c6cc(-c7ccc(-c8ccccc8)cc7)c(-c7ccc(N8C(=O)c9ccc(*)cc9C8=O)cc7)c(-c7ccc(-c8ccccc8)cc7)c6)cc5)cc4)cc3-c3ccc(-c4ccccc4)cc3)cc1)C2=O` (repeat unit) as the compound, how does the glass transition temperature read?
A: 103.50 °C

Q: Which glass transition temperature does the source give for `*Oc1ccc(NC(=O)NC2CC(C)(C)CC(C)(CNC(=O)Nc3ccc(*)cc3)C2)cc1` (repeat unit) here?
A: 274.00 °C

Q: For `*CCCCCCCCCCCC(=O)Oc1ccc(OC(=O)c2ccc3c(c2)C(=O)N(*)C3=O)cc1` (repeat unit), which glass transition temperature is on record?
A: 58.00 °C

Q: With `*c1ccc(Oc2ccc(Oc3ccc(-c4ccc(Oc5ccc(Oc6ccc(C7(*)OC(=O)c8ccccc87)cc6)cc5)c5ccccc45)c4ccccc34)cc2)cc1` (repeat unit) as the compound, how does the glass transition temperature read?
A: 198.00 °C
